Values of other authors in patent US5281421A, “Gemfibrozil formulations” (Warner-Lambert Company, priority 1992, dated 1994).

Conditions: particularly in a highly acidic medium

For `Cc1ccc(C)c(OCCCC(C)(C)C(=O)O)c1` [Gemfibrozil, 5-(2,5-dimethylphenoxy)-2,2-dimethylpentanoic acid], the solubility in water is given as “very poor solubility in water”.
